ChEMBL document CHEMBL1156236, “Trypanoside, anti-tuberculosis, leishmanicidal, and cytotoxic activities of tetrahydrobenzothienopyrimidines” (Bioorg Med Chem, 2010)
Values after ≈ are worked out from the molar mass of the structure shown.

Legend:
[1] = tested on: SNB-19; experiment: Cytotoxicity against human SNB19 cells; type: functional
[2] = tested on: COLO 205; experiment: Cytotoxicity against human COLO205 cells; type: functional
[3] = tested on: UACC-257; experiment: Cytotoxicity against human UACC257 cells; type: functional
[4] = tested on: CCRF-CEM; experiment: Cytotoxicity against human CCRF-CEM cells; type: functional
[5] = tested on: SK-OV-3; experiment: Cytotoxicity against human SKOV3 cells; type: functional
[6] = tested on: SK-MEL-2; experiment: Cytotoxicity against human SK-MEL-2 cells; type: functional
[7] = tested on: EKVX; experiment: Cytotoxicity against human EKVX cells; type: functional
[8] = tested on: HL-60(TB); experiment: Cytotoxicity against human HL-60(TB) cells; type: functional
[9] = tested on: HCT-116; experiment: Cytotoxicity against human HCT116 cells; type: functional
[10] = tested on: Vero; experiment: Cytotoxicity against african green monkey Vero cells after 72 hrs by MTS assay; details: Chlorocebus sabaeus, Vero, 72 h
[11] = Cytotoxicity against BALB/c mouse macrophages after 48 hrs by trypan blue dye exclusion method; type: cell-based; details: Macrophage
[12] = tested on: CAKI-1; experiment: Cytotoxicity against human Caki1 cells; type: functional
[13] = tested on: IGROV-1; experiment: Cytotoxicity against human IGROV1 cells; type: functional
[14] = tested on: SF-268; experiment: Cytotoxicity against human SF268 cells; type: functional
[15] = tested on: SF-539; experiment: Cytotoxicity against human SF539 cells; type: functional
[16] = tested on: LOX IMVI; experiment: Cytotoxicity against human LOXIMVI cells; type: functional
[17] = Cytotoxicity against BALB mouse 3T3 cells; type: cell-based; details: BALB 3T3 cells
[18] = tested on: KM12; experiment: Cytotoxicity against human KM12 cells; type: functional
[19] = Cytotoxicity against human […] cells; type: functional
[20] = tested on: OVCAR-5; experiment: Cytotoxicity against human OVCAR5 cells; type: functional
[21] = tested on: NCI-H522; experiment: Cytotoxicity against human NCI-H522 cells; type: functional
[22] = tested on: MDA-MB-231; experiment: Cytotoxicity against human MDA-MB-231 cells; type: functional
[23] = tested on: Leishmania amazonensis; experiment: Antileishmanial activity against Leishmania amazonensis Lma CL1 amastigotes infected BALB/c mouse macrophages after 48 hrs by Giemsa staining method; type: functional, organism-based; details: Lma CL1, 48 h
[24] = tested on: U-251; experiment: Cytotoxicity against human U251 cells; type: functional
[25] = tested on: OVCAR-3; experiment: Cytotoxicity against human OVCAR-3 cells; type: functional
[26] = tested on: A549; experiment: Cytotoxicity against human A549 cells; type: functional
[27] = tested on: BT-549; experiment: Cytotoxicity against human BT549 cells; type: functional
[28] = tested on: HCT-15; experiment: Cytotoxicity against human HCT15 cells; type: functional
[29] = Cytotoxicity against human Hs 578T cells; type: functional
[30] = tested on: Leishmania braziliensis; experiment: Antileishmanial activity against Leishmania braziliensis MHOM/PE/PER006 promastigote infected BALB/c mouse macrophages after 48 hrs by Giemsa staining method; type: functional, organism-based; details: MHOM/PE/PER006, 48 h
[31] = tested on: UO-31; experiment: Cytotoxicity against human UO31 cells; type: functional; details: read-out: LC50 (the source's name)
[32] = tested on: Trypanosoma cruzi; experiment: Antitrypanosomal activity against Trypanosoma cruzi tulahuen C4 trypomastigotes infected in african green monkey Vero cells assessed as CPRG cleavage after 120 hrs by microplate reader; type: functional, organism-based
[33] = tested on: SNB-75; experiment: Cytotoxicity against human SNB75 cells; type: functional
[34] = tested on: RXF 393; experiment: Cytotoxicity against human RXF393 cells; type: functional
[35] = tested on: MOLT-4; experiment: Cytotoxicity against human MOLT4 cells; type: functional
[36] = tested on: PC-3; experiment: Cytotoxicity against human PC3 cells; type: functional
[37] = tested on: SF-295; experiment: Cytotoxicity against human SF295 cells; type: functional
[38] = tested on: MCF7; experiment: Cytotoxicity against human MCF7 cells; type: functional
[39] = tested on: OVCAR-4; experiment: Cytotoxicity against human OVCAR4 cells; type: functional
[40] = tested on: SN12C; experiment: Cytotoxicity against human SN12C cells; type: functional
[41] = tested on: T47D; experiment: Cytotoxicity against human T47D cells; type: functional
[42] = tested on: Mycobacterium tuberculosis; experiment: Antitubercular activity against Mycobacterium tuberculosis H37Rv ATCC 27294 after 7 days by microplate alamar blue assay; type: functional; details: H37Rv ATCC 27294, 168 h
[43] = tested on: SR; experiment: Cytotoxicity against human SR cells; type: functional
[44] = tested on: TK-10; experiment: Cytotoxicity against human TK10 cells; type: functional
[45] = tested on: NCI-H460; experiment: Cytotoxicity against human NCI-H460 cells; type: functional
[46] = tested on: HCC 2998; experiment: Cytotoxicity against human HCC2998 cells; type: functional
[47] = read-out: LC50 (the source's name)

In the case of `C(=N\Nc1ncnc2sc3c(c12)CCCC3)/c1ccccn1`, the GI50 [1] is reported as 0.767 µM, the TGI [1] is reported as 34.1 µM and the CC50 [1, 47] is reported as > 100 µM. For the same compound, the GI50 [2] was 0.315 µM, the TGI [2] was 14.7 µM and the CC50 [2, 47] was 54.5 µM. The GI50 [3] was 0.355 µM, the CC50 [3, 47] was 41.7 µM and the GI50 [4] was 0.242 µM. The TGI [4] was 0.769 µM, the CC50 [4, 47] was > 100 µM and the GI50 [5] was 0.41 µM. The TGI [5] was 29.2 µM, the CC50 [5, 47] was > 0.1 µM and the GI50 [6] was 7.51 µM. It also gave a TGI [6] of 25.5 µM, a CC50 [6, 47] of 67.8 µM and a GI50 [7] of 0.317 µM. For the same compound, the TGI [7] was 20.5 µM, the CC50 [7, 47] was > 100 µM and the GI50 [8] was 0.12 µM. The TGI [8] was 0.407 µM, the CC50 [8, 47] was > 100 µM and the GI50 [9] was 0.166 µM. For the same compound, the TGI [9] was 14.2 µM, the CC50 [9, 47] was 67.4 µM and the IC50 [10] was < 0.3 µM. It also gave an IC50 [11] of 6.5 µM, a GI50 [12] of 0.313 µM and a TGI [12] of 14.8 µM. For the same compound, the CC50 [12, 47] was > 100 µM, the GI50 [13] was 0.45 µM and the TGI [13] was 28.9 µM. For the same compound, the CC50 [13, 47] was > 100 µM, the GI50 [14] was 0.356 µM and the TGI [14] was 15.1 µM. It also gave a CC50 [14, 47] of 83 µM, a GI50 [15] of 0.391 µM and a TGI [15] of 0.384 µM. It also gave a CC50 [15, 47] of 29.2 µM, a GI50 [16] of 0.256 µM and a CC50 [16, 47] of 34.8 µM. For the same compound, the GI50 [17] was 0.04 µM, the GI50 [18] was 0.515 µM and the TGI [18] was 12.7 µM. For the same compound, the CC50 [18, 47] was 38 µM, the GI50 [19] was 0.35 µM and the TGI [19] was 12.5 µM. The CC50 [19, 47] was > 100 µM, the GI50 [20] was 0.823 µM and the TGI [20] was 31.4 µM. The CC50 [20, 47] was > 0.1 µM, the GI50 [21] was 0.419 µM and the TGI [21] was 23.2 µM. For the same compound, the CC50 [21, 47] was > 100 µM, the GI50 [22] was 0.603 µM and the TGI [22] was 29.7 µM. For the same compound, the CC50 [22, 47] was > 100 µM, the IC50 [23] was > 2 µM and the GI50 [24] was 0.369 µM. It also gave a TGI [24] of 12.1 µM, a CC50 [24, 47] of 34.8 µM and a GI50 [25] of 0.109 µM. It also gave a TGI [25] of 14.5 µM, a CC50 [25, 47] of 43.9 µM and a GI50 [26] of 0.389 µM. It also gave a TGI [26] of 14.9 µM, a CC50 [26, 47] of 70 µM and a GI50 [27] of 0.394 µM. For the same compound, the TGI [27] was 28.7 µM, the CC50 [27, 47] was > 100 µM and the GI50 [28] was 0.45 µM. For the same compound, the TGI [28] was 27 µM, the CC50 [28, 47] was > 100 µM and the GI50 [29] was 0.748 µM. For the same compound, the TGI [29] was 23.9 µM, the CC50 [29, 47] was > 100 µM and the IC50 [30] was 0.6 µM. For the same compound, the CC50 [31] was 63 µM, the IC50 [32] was 3.9 µM and the GI50 [33] was 0.585 µM. The TGI [33] was 14.7 µM, the CC50 [33, 47] was 49.3 µM and the GI50 [34] was 0.423 µM. It also gave a TGI [34] of 10.6 µM, a CC50 [34, 47] of 45.3 µM and a GI50 [35] of 0.261 µM. The TGI [35] was 0.774 µM, the CC50 [35, 47] was > 100 µM and the GI50 [36] was 0.431 µM. The TGI [36] was 71.1 µM, the CC50 [36, 47] was > 100 µM and the GI50 [37] was 0.313 µM. The TGI [37] was 12.1 µM, the CC50 [37, 47] was > 100 µM and the GI50 [38] was 0.09 µM. It also gave a TGI [38] of 15.3 µM, a CC50 [38, 47] of 80 µM and a GI50 [39] of 0.431 µM. The TGI [39] was 26.3 µM, the CC50 [39, 47] was > 0.1 µM and the GI50 [40] was 0.426 µM. It also gave a TGI [40] of 15.3 µM, a CC50 [40, 47] of 81 µM and a GI50 [41] of 0.0764 µM. The TGI [41] was 28 µM, the CC50 [41, 47] was > 100 µM and the MIC [42] was 145 µM (≈ 44.9 µg/mL). For the same compound, the GI50 [43] was 0.368 µM, the TGI [43] was 0.953 µM and the CC50 [43, 47] was > 100 µM. For the same compound, the GI50 [44] was 0.486 µM, the TGI [44] was 56.6 µM and the CC50 [44, 47] was > 100 µM. For the same compound, the GI50 [45] was 0.4 µM, the TGI [45] was 1.73 µM and the CC50 [45, 47] was 31.1 µM. For the same compound, the GI50 [46] was 10 µM, the TGI [46] was 22.9 µM and the CC50 [46, 47] was 52.6 µM.
